Laboratory results from patent US20250171437A1 (Agios Pharmaceuticals,Inc., priority 2022, published 2025).

These molecules were tested against T1, human PAH with the R408W mutation (A375 R408W cells) (Homo sapiens, UniProt P00439, R408W) (assay: Cell Based Phenylalanine Flux Assay). Conditions: A375 R408W cells; 24 hrs with compound, then 20 μM sepiapterin and 800 μM 13C9,15N-Phenylalanine for 4 hours; 13C-Tyrosine by LC-MS; average where tested multiple times.
T1 construct: expressed in transfected cells
T1 sequence (P00439 1-452 R408W): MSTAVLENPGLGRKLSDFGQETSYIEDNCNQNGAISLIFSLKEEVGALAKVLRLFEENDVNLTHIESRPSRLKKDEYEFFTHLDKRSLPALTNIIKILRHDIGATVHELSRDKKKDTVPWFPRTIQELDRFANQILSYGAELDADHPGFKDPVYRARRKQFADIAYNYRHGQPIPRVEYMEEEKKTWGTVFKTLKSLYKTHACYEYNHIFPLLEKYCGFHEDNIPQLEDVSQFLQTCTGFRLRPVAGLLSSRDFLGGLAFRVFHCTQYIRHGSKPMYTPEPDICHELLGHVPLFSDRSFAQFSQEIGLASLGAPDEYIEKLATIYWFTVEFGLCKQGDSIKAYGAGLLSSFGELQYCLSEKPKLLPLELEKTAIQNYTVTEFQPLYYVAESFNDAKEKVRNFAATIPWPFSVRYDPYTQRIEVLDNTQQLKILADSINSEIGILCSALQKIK
Summary of the method: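 Stable R408W PAH A375 cells: 24 h compound pretreatment in duplicate, then 4 h with 800 μM isotope-labelled Phe and 20 μM sepiapterin. Labelled Tyr output by LC-MS; AC50 averaged where repeated.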

Question: Which AC50 does the source give for `CC(C)(O)c1nc(C(F)F)c(C(=O)N2CCc3[nH]cnc3[C@H]2c2nc3cc(F)cc(F)c3o2)o1` [Example 307, (S)-(4-(5,7-difluorobenzo[d]oxazol-2-yl)-6,7-dihydro-1H-imidazo[4,5-c]pyridin-5(4H)-yl)(4-(difluoromethyl)-2-(2-hydroxypropan-2-yl)oxazol-5-yl)methanone] here?
Answer: Its AC50 is at most 500 nM.

Question: With `CC(C)(O)c1nc(C(F)F)c(C(=O)N2CCc3[nH]cnc3[C@@H]2c2nc3ccc(F)c(F)c3o2)o1` [Example 298, (R)-(4-(6,7-difluorobenzo[d]oxazol-2-yl)-6,7-dihydro-1H-imidazo[4,5-c]pyridin-5(4H)-yl)(4-(difluoromethyl)-2-(2-hydroxypropan-2-yl)oxazol-5-yl)methanone] as the molecule, how does the AC50 read?
Answer: Its AC50 is 1000 to 5000 nM.

Question: How did the AC50 turn out when `Cn1ccc(-c2nnc(C(=O)N3CCc4[nH]cnc4[C@H]3c3nc4cccc(C(F)(F)F)c4o3)o2)n1` [Example 832, (S)-(5-(1-methyl-1H-pyrazol-3-yl)-1,3,4-oxadiazol-2-yl)(4-(7-(trifluoromethyl)benzo[d]oxazol-2-yl)-6,7-dihydro-1H-imidazo[4,5-c]pyridin-5(4H)-yl)methanone] was run?
Answer: The AC50 was at most 500 nM.

Question: For `COc1cccc2nc([C@H]3c4nc[nH]c4CCN3C(=O)c3cc(C(F)F)nn3C)oc12` [Example 778, (R)-(3-(difluoromethyl)-1-methyl-1H-pyrazol-5-yl)(4-(7-methoxybenzo[d]oxazol-2-yl)-6,7-dihydro-1H-imidazo[4,5-c]pyridin-5(4H)-yl)methanone], which AC50 is on record?
Answer: Its AC50 is 500 to 1000 nM.

Question: With `Cc1ccc2oc([C@@H]3c4nc[nH]c4CCN3C(=O)c3nnc(-c4ccn(C(F)F)n4)o3)nc2c1` [Example 695, (S)-(5-(1-(difluoromethyl)-1H-pyrazol-3-yl)-1,3,4-oxadiazol-2-yl)(4-(5-methylbenzo[d]oxazol-2-yl)-6,7-dihydro-1H-imidazo[4,5-c]pyridin-5(4H)-yl)methanone] as the molecule, how does the AC50 read?
Answer: Its AC50 is at most 500 nM.

Question: How did the AC50 turn out when `Cc1cccc2oc([C@H]3c4nc[nH]c4CCN3C(=O)c3nnc(-c4ccccn4)o3)nc12` [Example 481, (R)-(4-(4-methylbenzo[d]oxazol-2-yl)-6,7-dihydro-1H-imidazo[4,5-c]pyridin-5(4H)-yl)(5-(pyridin-2-yl)-1,3,4-oxadiazol-2-yl)methanone] was run?
Answer: Its AC50 is 500 to 1000 nM.

Question: Which AC50 does the source give for `CC1CN(C(=O)c2ocnc2C(F)F)[C@@H](c2nc3cccc(F)c3o2)c2nc[nH]c21` (single isomer, unassigned) [Example 806] here?
Answer: The AC50 was 1000 to 5000 nM.

Question: For `Cc1nc(-c2ccn(C)n2)oc1C(=O)N1CCc2[nH]cnc2[C@H]1c1nc2cc(F)ccc2o1` [Example 825, (S)-(4-(5-fluorobenzo[d]oxazol-2-yl)-6,7-dihydro-1H-imidazo[4,5-c]pyridin-5(4H)-yl)(4-methyl-2-(1-methyl-1H-pyrazol-3-yl)oxazol-5-yl)methanone], which AC50 is on record?
Answer: Its AC50 is 1000 to 5000 nM.

Question: Which AC50 does the source give for `Cn1nc(C(F)F)nc1C(=O)N1CCc2[nH]cnc2[C@@H]1c1nc2cc(F)cc(F)c2o1` [Example 578, (R)-(4-(5,7-difluorobenzo[d]oxazol-2-yl)-6,7-dihydro-1H-imidazo[4,5-c]pyridin-5(4H)-yl)(3-(difluoromethyl)-1-methyl-1H-1,2,4-triazol-5-yl)methanone] here?
Answer: The AC50 was 1000 to 5000 nM.

Question: How did the AC50 turn out when `Cn1cc(-c2nnc(C(=O)N3CCc4[nH]cnc4[C@H]3c3nc4cccc(C(F)(F)F)c4o3)o2)cn1` [Example 830, (S)-(5-(1-methyl-1H-pyrazol-4-yl)-1,3,4-oxadiazol-2-yl)(4-(7-(trifluoromethyl)benzo[d]oxazol-2-yl)-6,7-dihydro-1H-imidazo[4,5-c]pyridin-5(4H)-yl)methanone] was run?
Answer: Its AC50 is 500 to 1000 nM.

Question: How did the AC50 turn out when `O=C(c1oc(N2CCC(F)CC2)nc1C(F)F)N1CCc2[nH]cnc2[C@H]1c1nc2cc(F)ccc2o1` [Example 401, (S)-(4-(difluoromethyl)-2-(4-fluoropiperidin-1-yl)oxazol-5-yl)(4-(5-fluorobenzo[d]oxazol-2-yl)-6,7-dihydro-1H-imidazo[4,5-c]pyridin-5(4H)-yl)methanone] was run?
Answer: The AC50 was at most 500 nM.

Question: `Cc1cccc2nc([C@@H]3c4nc[nH]c4CCN3C(=O)c3nc(C(F)(F)F)nn3C)oc12` [Example 685, (S)-(1-methyl-3-(trifluoromethyl)-1H-1,2,4-triazol-5-yl)(4-(7-methylbenzo[d]oxazol-2-yl)-6,7-dihydro-1H-imidazo[4,5-c]pyridin-5(4H)-yl)methanone] was tested. Which AC50 did it give?
Answer: The AC50 was 500 to 1000 nM.

Question: With `CC(C)(O)c1nc(C(F)F)c(C(=O)N2CCc3[nH]cnc3[C@@H]2c2nc3c(Cl)cccc3o2)o1` [Example 436, [(4R)-4-(4-chloro-1,3-benzoxazol-2-yl)-1,4,6,7-tetrahydroimidazo[4,5-c]pyridin-5-yl]-[4-(difluoromethyl)-2-(1-hydroxy-1-methyl-ethyl)oxazol-5-yl]methanone] as the molecule, how does the AC50 read?
Answer: Its AC50 is 500 to 1000 nM.

Question: How did the AC50 turn out when `O=C(c1cnn2cc(Br)c(Cl)cc12)N1CCc2[nH]cnc2[C@H]1c1nc2cc(F)ccc2o1` [Example 165, (S)-(6-bromo-5-chloropyrazolo[1,5-a]pyridin-3-yl)(4-(5-fluorobenzo[d]oxazol-2-yl)-6,7-dihydro-1H-imidazo[4,5-c]pyridin-5(4H)-yl)methanone] was run?
Answer: The AC50 was at most 500 nM.

Question: How did the AC50 turn out when `O=C(c1ocnc1C(F)(F)F)N1CCc2[nH]cnc2[C@@H]1c1nc2c(F)cccc2o1` [Example 168, (R)-(4-(4-fluorobenzo[d]oxazol-2-yl)-6,7-dihydro-1H-imidazo[4,5-c]pyridin-5(4H)-yl)(4-(trifluoromethyl)oxazol-5-yl)methanone] was run?
Answer: Its AC50 is 1000 to 5000 nM.

Question: Which AC50 does the source give for `COc1cccc2oc([C@H]3c4nc[nH]c4CCN3C(=O)c3nnc(-c4ccn(C)n4)o3)nc12` [Example 640, (R)-(4-(4-methoxybenzo[d]oxazol-2-yl)-6,7-dihydro-1H-imidazo[4,5-c]pyridin-5(4H)-yl)(5-(1-methyl-1H-pyrazol-3-yl)-1,3,4-oxadiazol-2-yl)methanone] here?
Answer: The AC50 was 1000 to 5000 nM.

Question: How did the AC50 turn out when `Cc1ccc2nc([C@@H]3c4nc[nH]c4CCN3C(=O)c3nnc(-c4ccn(C(F)F)n4)o3)oc2c1` [Example 703, (S)-(5-(1-(difluoromethyl)-1H-pyrazol-3-yl)-1,3,4-oxadiazol-2-yl)(4-(6-methylbenzo[d]oxazol-2-yl)-6,7-dihydro-1H-imidazo[4,5-c]pyridin-5(4H)-yl)methanone] was run?
Answer: The AC50 was 500 to 1000 nM.

Question: How did the AC50 turn out when `O=C(c1oc(N2CCOCC2)nc1C(F)F)N1CCc2[nH]cnc2[C@H]1c1nc2cccc(F)c2o1` [Example 648, (S)-(4-(difluoromethyl)-2-morpholinooxazol-5-yl)(4-(7-fluorobenzo[d]oxazol-2-yl)-6,7-dihydro-1H-imidazo[4,5-c]pyridin-5(4H)-yl)methanone] was run?
Answer: Its AC50 is at most 500 nM.

Question: `CC(C)(C)c1nnc(C(=O)N2CCc3[nH]cnc3[C@@H]2c2nc3c(F)ccc(F)c3o2)o1` [Example 851, (R)-(5-(tert-butyl)-1,3,4-oxadiazol-2-yl)(4-(4,7-difluorobenzo[d]oxazol-2-yl)-6,7-dihydro-1H-imidazo[4,5-c]pyridin-5(4H)-yl)methanone] was tested. Which AC50 did it give?
Answer: Its AC50 is 500 to 1000 nM.

Question: Which AC50 does the source give for `O=C(c1nnc(-c2ccn(C(F)F)n2)o1)N1CCc2[nH]cnc2[C@@H]1c1nc2cccc(C(F)(F)F)c2o1` [Example 853, (R)-(5-(1-(difluoromethyl)-1H-pyrazol-3-yl)-1,3,4-oxadiazol-2-yl)(4-(7-(trifluoromethyl)benzo[d]oxazol-2-yl)-6,7-dihydro-1H-imidazo[4,5-c]pyridin-5(4H)-yl)methanone] here?
Answer: Its AC50 is 500 to 1000 nM.

Question: Which AC50 does the source give for `O=C(c1nnc(-c2cnn(C3CCC3)c2)o1)N1CCc2[nH]cnc2[C@H]1c1nc2c(F)ccc(F)c2o1` [Example 811, (S)-(5-(1-cyclobutyl-1H-pyrazol-4-yl)-1,3,4-oxadiazol-2-yl)(4-(4,7-difluorobenzo[d]oxazol-2-yl)-6,7-dihydro-1H-imidazo[4,5-c]pyridin-5(4H)-yl)methanone] here?
Answer: The AC50 was at most 500 nM.

Question: `O=C(c1cnn2cc(N3CCC(O)CC3)ccc12)N1CCc2[nH]cnc2[C@H]1c1nc2c(F)ccc(F)c2o1` [Example 895, (S)-(4-(4,7-difluorobenzo[d]oxazol-2-yl)-6,7-dihydro-1H-imidazo[4,5-c]pyridin-5(4H)-yl)(6-(4-hydroxypiperidin-1-yl)pyrazolo[1,5-a]pyridin-3-yl)methanone] was tested. Which AC50 did it give?
Answer: The AC50 was 1000 to 5000 nM.

Same assay, conditions: A375 cells expressing R408W PAH; 24 hrs with compound, then 20 μM sepiapterin and 800 μM 13C9,15N-Phenylalanine for 4 hours; 13C-Tyrosine by LC-MS; average where tested multiple times

Question: `O=C(c1ccn(-c2ccccn2)n1)N1CCc2[nH]cnc2C1c1nc2cccc(F)c2o1` (stereo not drawn) was tested. Which AC50 did it give?
Answer: The AC50 was at least 5000 nM.

Question: How did the AC50 turn out when `CN1C2CCC1CN(c1ccc3c(C(=O)N4CCc5[nH]cnc5C4c4nc5cc(F)ccc5o4)cnn3c1)C2` (single isomer, unassigned) was run?
Answer: Its AC50 is 1000 to 5000 nM.

Question: With `Cn1nc(C(F)F)nc1C(=O)N1CCc2[nH]cnc2C1c1nc2ccc(F)cc2o1` (stereo not drawn) as the molecule, how does the AC50 read?
Answer: Its AC50 is 1000 to 5000 nM.

Question: `O=C(C1CN(c2ccccn2)C1)N1CCc2[nH]cnc2C1c1nc2cc(F)ccc2o1` (stereo not drawn) was tested. Which AC50 did it give?
Answer: Its AC50 is 1000 to 5000 nM.

Question: For `O=C(c1cnco1)N1CCc2[nH]cnc2C1c1nc2ccc(F)cc2o1` (stereo not drawn), which AC50 is on record?
Answer: The AC50 was 1000 to 5000 nM.

Question: With `O=C(c1ncc(Cl)s1)N1CCc2[nH]cnc2C1c1nc2cc(F)ccc2o1` (stereo not drawn) as the molecule, how does the AC50 read?
Answer: Its AC50 is 1000 to 5000 nM.

Question: With `CC(C)(O)Cn1cc(C(=O)N2CCc3[nH]cnc3C2c2nc3cc(F)ccc3o2)cn1` (stereo not drawn) as the molecule, how does the AC50 read?
Answer: The AC50 was at least 5000 nM.

Question: Which AC50 does the source give for `O=C(CCc1nccs1)N1CCc2[nH]cnc2C1c1nc2ccc(Br)cc2o1` (stereo not drawn) here?
Answer: Its AC50 is at least 5000 nM.

Question: For `COc1cccc2nc(C3c4nc[nH]c4CCN3C(=O)c3cc(C(C)(C)C)nn3C)oc12` (stereo not drawn), which AC50 is on record?
Answer: Its AC50 is 1000 to 5000 nM.

Question: How did the AC50 turn out when `O=C(c1cnn2cc(CCN3CC(F)C3)ccc12)N1CCc2[nH]cnc2C1c1nc2cc(F)ccc2o1` (stereo not drawn) [listing 1 of 2 here] was run?
Answer: Its AC50 is at least 5000 nM.

Question: How did the AC50 turn out when `O=C(c1cnn2cc(CCN3CC(F)C3)ccc12)N1CCc2[nH]cnc2C1c1nc2cc(F)ccc2o1` (stereo not drawn) [listing 2 of 2 here] was run?
Answer: The AC50 was 1000 to 5000 nM.
